Source: US20140005163A1 (NOVARTIS AG, priority 2010, published 2014)

Each compound was assayed on S6 Ribosomal Protein phosphorylation Ser235/236 in TSC1 null mouse embryo fibroblast (MEF) cells (assay: Reverse protein array assay, S6 Ribosomal Protein phosphorylation Ser235/236 in TSC1 null MEF cells). Conditions: 1 h, pS6 ribosomal protein Ser235/236, 60 minutes incubation, read-out: p-S6 IC50.
Type: cell-based
Summary of the method: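 TSC1−/− MEFs, seeded and held ≥20 h at 37 °C/5% CO2, were exposed to 8-step serial compound dilutions (0.02% DMSO final; DMSO vehicle control) for 60 min at 37 °C. Cells were then lysed on ice for 10 min and lysates spotted onto reverse protein array chips.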

| Compound | IC50 [nM] |
| --- | --- |
| CCN(C)c1cc(-c2ccc3ncc4c(c3c2)n(-c2cn(C)nc2C)c(=O)n4C)cnc1C [Example 165, 1-(1,3-Dimethyl-1H-pyrazol-4-yl)-8-[5-(ethyl-methyl-amino)-6-methyl-pyridin-3-yl]-3-methyl-1,3-dihydro-imidazo[4,5-c]quinolin-2-one] | 1 |
| Cc1nn(C(C)C)cc1-n1c(=O)n(C)c2cnc3ccc(-c4cnc(N)c(CO)c4)cc3c21 [Example 169.1, 8-(6-Amino-5-hydroxymethyl-pyridin-3-yl)-1-(1-isopropyl-3-methyl-1H-pyrazol-4-yl)-3-methyl-1,3-dihydro-imidazo[4,5-c]quinolin-2-one] | 5.63 |
| Cc1nn(C)cc1-n1c(=O)n(C)c2cnc3ccc(-c4cncc(NC5CCC5)c4)cc3c21 [Example 172, 8-(5-Cyclobutylamino-pyridin-3-yl)-1-(1,3-dimethyl-1H-pyrazol-4-yl)-3-methyl-1,3-dihydro-imidazo[4,5-c]quinolin-2-one] | 1 |
| Cc1nn(C)cc1-n1c(=O)n(C)c2cnc3ccc(-c4cncc(N(C)C(C)C)c4)cc3c21 [Example 173, 1-(1,3-Dimethyl-1H-pyrazol-4-yl)-8-[5-(isopropyl-methyl-amino)-pyridin-3-yl]-3-methyl-1,3-dihydro-imidazo[4,5-c]quinolin-2-one] | 2 |
| Cc1nn(C)cc1-n1c(=O)n(C)c2cnc3ccc(-c4cncc(N(C)C)c4)cc3c21 [Example 178, 8-(5-Dimethylamino-pyridin-3-yl)-1-(1,3-dimethyl-1H-pyrazol-4-yl)-3-methyl-1,3-dihydro-imidazo[4,5-c]quinolin-2-one] | 2 |
| CNc1cncc(-c2ccc3ncc4c(c3c2)n(-c2cn(C(C)C)nc2C)c(=O)n4C)c1 [Example 180.2, 1-(1-Isopropyl-3-methyl-1H-pyrazol-4-yl)-3-methyl-8-(5-methylamino-pyridin-3-yl)-1,3-dihydro-imidazo[4,5-c]quinolin-2-one] | 17 |
| CCOc1cc(-c2ccc3ncc4c(c3c2)n(-c2cn(C)nc2C)c(=O)n4C)cnc1CC [Example 187, 1-(1,3-Dimethyl-1H-pyrazol-4-yl)-8-(5-ethoxy-6-ethyl-pyridin-3-yl)-3-methyl-1,3-dihydro-imidazo[4,5-c]quinolin-2-one] | 1.89 |
| CCc1ncc(-c2ccc3ncc4c(c3c2)n(-c2cn(C)nc2C)c(=O)n4C)cc1O [Example 188, 1-(1,3-Dimethyl-1H-pyrazol-4-yl)-8-(6-ethyl-5-hydroxy-pyridin-3-yl)-3-methyl-1,3-dihydro-imidazo[4,5-c]quinolin-2-one] | 8.15 |
| CCn1cc(-n2c(=O)n(C)c3cnc4ccc(-c5cnc(COC)c(OC(C)C)c5)cc4c32)c(C)n1 [Example 191.2, 1-(1-Ethyl-3-methyl-1H-pyrazol-4-yl)-8-(5-isopropoxy-6-methoxymethyl-pyridin-3-yl)-3-methyl-1,3-dihydro-imidazo[4,5-c]quinolin-2-one] | 5 |
| Cc1nn(C)cc1-n1c(=O)n(C)c2cnc3ccc(-c4cnc(CO)c(OC(CF)CF)c4)cc3c21 [Example 192, 1-(1,3-Dimethyl-1H-pyrazol-4-yl)-8-[5-(2-fluoro-1-fluoromethyl-ethoxy)-6-hydroxymethyl-pyridin-3-yl]-3-methyl-1,3-dihydro-imidazo[4,5-c]quinolin-2-one] | 5 |
| CCOCc1ncc(-c2ccc3ncc4c(c3c2)n(-c2cn(C)nc2C)c(=O)n4C)cc1OC [Example 196.2, 1-(1,3-Dimethyl-1H-pyrazol-4-yl)-8-(6-ethoxymethyl-5-methoxy-pyridin-3-yl)-3-methyl-1,3-dihydro-imidazo[4,5-c]quinolin-2-one] | 125 |
| CCOc1cc(-c2ccc3ncc4c(c3c2)n(-c2cn(C(C)C)nc2C)c(=O)n4C)cnc1COC [Example 197.2, 8-(5-Ethoxy-6-methoxymethyl-pyridin-3-yl)-1-(1-isopropyl-3-methyl-1H-pyrazol-4-yl)-3-methyl-1,3-dihydro-imidazo[4,5-c]quinolin-2-one] | 7 |
| COCc1ccc(-c2ccc3ncc4c(c3c2)n(-c2cn(C)nc2Cl)c(=O)n4C)cn1 [Example 203, 1-(3-Chloro-1-methyl-1H-pyrazol-4-yl)-8-(6-methoxymethyl-pyridin-3-yl)-3-methyl-1,3-dihydro-imidazo[4,5-c]quinolin-2-one] | 22 |
| CCNc1ncc(-c2ccc3ncc4c(c3c2)n(-c2cn(C)nc2C)c(=O)n4C)cc1COC [Example 206.1, 1-(1,3-Dimethyl-1H-pyrazol-4-yl)-8-(6-ethylamino-5-methoxymethyl-pyridin-3-yl)-3-methyl-1,3-dihydro-imidazo[4,5-c]quinolin-2-one] | 3 |
| CCNc1ncc(-c2ccc3ncc4c(c3c2)n(-c2c(C)nn(C)c2C)c(=O)n4C)cc1COC [Example 206.2, 8-(6-Ethylamino-5-methoxymethyl-pyridin-3-yl)-3-methyl-1-(1,3,5-trimethyl-1H-pyrazol-4-yl)-1,3-dihydro-imidazo[4,5-c]quinolin-2-one] | 77 |
| CCc1ncc(-c2ccc3ncc4c(c3c2)n(-c2cn(C)nc2C)c(=O)n4C)cc1N [Example 208, 8-(5-Amino-6-ethyl-pyridin-3-yl)-1-(1,3-dimethyl-1H-pyrazol-4-yl)-3-methyl-1,3-dihydro-imidazo[4,5-c]quinolin-2-one] | 5 |
| CO[C@@H]1CCN(c2ccc(-c3ccc4ncc5c(c4c3)n(-c3cn(C)nc3C)c(=O)n5C)cn2)C1 [Example 213.1, 1-(1,3-Dimethyl-1H-pyrazol-4-yl)-8-[6-((R)-3-methoxy-pyrrolidin-1-yl)-pyridin-3-yl]-3-methyl-1,3-dihydro-imidazo[4,5-c]quinolin-2-one] | 49.4 |
| Cn1cc(-n2c(=O)n(C)c3cnc4ccc(-c5cncc(C(C)(C)C#N)c5)cc4c32)c(Cl)n1 [Example 220.3, 2-{5-[1-(3-Chloro-1-methyl-1H-pyrazol-4-yl)-3-methyl-2-oxo-2,3-dihydro-1H-imidazo[4,5-c]quinolin-8-yl]-pyridin-3-yl}-2-methyl-propionitrile] | < 0.5 |
| Cc1nn(C)cc1-n1c(=O)n(C)c2cnc3ccc(-c4cncc(C5(C#N)CCC5)c4)cc3c21 [Example 221.1, 1-{5-[1-(1,3-Dimethyl-1H-pyrazol-4-yl)-3-methyl-2-oxo-2,3-dihydro-1H-imidazo[4,5-c]quinolin-8-yl]-pyridin-3-yl}-cyclobutanecarbonitrile] | 1 |
| CCN1C(=O)OCc2ncc(-c3ccc4ncc5c(c4c3)n(-c3cn(C)nc3C)c(=O)n5C)cc21 [Example 237, 1-(1,3-Dimethyl-1H-pyrazol-4-yl)-8-(1-ethyl-2-oxo-1,4-dihydro-2H-pyrido[3,2-d][1,3]oxazin-7-yl)-3-methyl-1,3-dihydro-imidazo[4,5-c]quinolin-2-one] | 6 |
| CCn1c(=O)n(-c2cn(C)nc2C)c2c3cc(-c4cncc(N)c4)ccc3ncc21 [Example 245, 8-(5-Amino-pyridin-3-yl)-1-(1,3-dimethyl-1H-pyrazol-4-yl)-3-ethyl-1,3-dihydro-imidazo[4,5-c]quinolin-2-one] | 43 |
| Cc1nn(CC(=O)N2CCC2)cc1-n1c(=O)n(C)c2cnc3ccc(-c4cnc(N5CCCC5)nc4)cc3c21 [Example 247.2, 1-[1-(2-Azetidin-1-yl-2-oxo-ethyl)-3-methyl-1H-pyrazol-4-yl]-3-methyl-8-(2-pyrrolidin-1-yl-pyrimidin-5-yl)-1,3-dihydro-imidazo[4,5-c]quinolin-2-one] | 9 |
